Assay results from publication PMC12169104, “Towards the development of supramolecular self-associating amphiphiles as antibiofilm agents against Pseudomonas aeruginosa and Candida albicans biofilms” (Journal of Materials Chemistry. B, 2025).

Experiments:
[1] = system: P. aeruginosa (PAO1) biofilms; experiment: Biofilm inhibition, XTT metabolic assay; type: cell-based, Pseudomonas aeruginosa; conditions: 2.56 mM, Fig. 7(a)
Experimental: Initially, the ability of SSAs 1–5 to inhibit biofilm formation was determined against P. aeruginosa (PAO1) biofilms through an XTT metabolic assay, used to determine the viability of cells within a biofilm (Section S4, ESI ^†).[57] […] We believe that this may indicate that SSAs which contain a squaramide residue may experience an additional barrier to eliciting an antimicrobial effect that is concentration dependent.
Section S4: Microbial materials and methods
General remarks: The reference strains, Pseudomonas aeruginosa PAO1 and Candida albicans SC5314,
were used in this study. The strains were stored at −80 °C in nutrient broth (NB) (1 gL–1 meat extract, 2
gL–1 yeast extract, 5 gL–1 peptone, and 8 gL–1 sodium chloride) supplemented with 25 and 15 % (v/v)
glycerol, respectively. Before each assay, the P. aeruginosa and C. albicans strains were cultured from
the frozen stock onto nutrient agar (NA) (1 gL –1 […], 2 gL–1 yeast extract, 5 gL–1 peptone, 8 gL–
1 sodium chloride, 20 gL–1 agar) and yeast malt extract (YM) agar (3 gL–1 malt extract, 3 gL–1 yeast […]
for 48 hours at 37 °C and OD measurement (at a wavelength of 595 nm, OD 595) (EZ Read 800 Research, […]
introduced to each well. The plates were incubated for 3 hours at 37 °C in the dark and the absorbance
measured at 492 nm using a microtiter plate reader (EZ Read 800 Research, Biochrom, England). […]
evaluated. […]

[2] = Metabolic stability in liver microsomes; type: in vitro ADME, human
Experimental: Section S5: In vitro and in vivo studies
These studies were performed by Contract Research Organisation (CRO) Pharmaron. The methodology provided within the ESI is published within the express permission of this organisation.
The percentage of a compound recovered during the analysis process should be 100 %; any deviation from this value indicates experimental limitations such as unintended potential non-specific binding events to experimental equipment, solubility issues, etc.
In vitro Absorption, Distribution and Metabolism studies methods: […]
The ionisation
Kinetic Solubility Determination in PBS pH 7.4:
The stock solutions of test and control compounds were prepared in DMSO at 10 mM. From this a 300 µM solution was prepared in duplicate in 100 mM Phosphate Buffered Saline (PBS, pH 7.4 ± 0.1). These solutions were then shaken at 1100rpm for 2 hours at 25°C. […]
Metabolic Stability in Rat, Mouse and Human Liver Microsomes :
The metabolic stability of compounds at a concentration of 1 µM, in rat, mouse and human liver microsomes (BD Gentest, Franklin Lakes NJ) was measured following incubation with hepatic microsomes (0.5 mg of protein / mL) in the presence and absence of cofa ctor (NADPH) at 37 °C.
Aliquots of each incubation were removed at 0.5, 5, 15, 30 and 60 minutes. The reaction was stopped by the addition of cold acetonitrile containing analytical internal standard (IS). […]

SMILES	Inhibition of biofilm formation [1]	Hepatic Extraction Ratio (ER) ([2]; human)	half-life at 1 µM ([2]; liver microsomes, human microsomes, 1 µM, read-out: In vitro T1/2) [h]
O=C(O)CNc1c(Nc2ccc(C(F)(F)F)cc2)c(=O)c1=O [SSA 5]	completely inhibit biofilm formation	< 0.27	> 3.08
O=c1c(NCCCS(=O)(=O)O)c(Nc2ccc(C(F)(F)F)cc2)c1=O [SSA 4]	completely inhibit biofilm formation		
